From US20220370440A1 (Lead Discovery Center GmbH, priority 2018, published 2022)

Experiments:
[1] = biological target: Her2 Exon 20 INSYVMA Ba/F3 (Homo sapiens, UniProt P04626, DUP772-775, cells depend on it); experiment: Her2 Exon 20 INSYVMA Ba/F3 CellTiter-Glo; type: cell-based; conditions: CellTiter-Glo, 72 h, read-out: Her2 Exon 20 INSYVMA Ba/F3 CTG IC50
Summary of the method: (§1)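 IC50 values, binned A (≤100 nM) through E (>10000 nM), come from luminescent ATP quantitation of viable mutant-driven Ba/F3 cells. Compound exposure lasted 72 h, starting 24 h post-seeding; DMSO and 10 μM staurosporine served as controls, Z′ ≥0.5 required.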

HER2 INS YVMA = biological target: T1, HER2 INS YVMA (Homo sapiens, UniProt P04626, INS775YVMA); experiment: Lance Kinase Activity Assay, HER2 INS YVMA (Her2 Exon 20 INSYVMA Lance); type: biochemical; conditions: biochemical Lance assay
T1 construct: purchased DPF
T1 sequence (P04626 with tags, fused parts or gaps INS775YVMA): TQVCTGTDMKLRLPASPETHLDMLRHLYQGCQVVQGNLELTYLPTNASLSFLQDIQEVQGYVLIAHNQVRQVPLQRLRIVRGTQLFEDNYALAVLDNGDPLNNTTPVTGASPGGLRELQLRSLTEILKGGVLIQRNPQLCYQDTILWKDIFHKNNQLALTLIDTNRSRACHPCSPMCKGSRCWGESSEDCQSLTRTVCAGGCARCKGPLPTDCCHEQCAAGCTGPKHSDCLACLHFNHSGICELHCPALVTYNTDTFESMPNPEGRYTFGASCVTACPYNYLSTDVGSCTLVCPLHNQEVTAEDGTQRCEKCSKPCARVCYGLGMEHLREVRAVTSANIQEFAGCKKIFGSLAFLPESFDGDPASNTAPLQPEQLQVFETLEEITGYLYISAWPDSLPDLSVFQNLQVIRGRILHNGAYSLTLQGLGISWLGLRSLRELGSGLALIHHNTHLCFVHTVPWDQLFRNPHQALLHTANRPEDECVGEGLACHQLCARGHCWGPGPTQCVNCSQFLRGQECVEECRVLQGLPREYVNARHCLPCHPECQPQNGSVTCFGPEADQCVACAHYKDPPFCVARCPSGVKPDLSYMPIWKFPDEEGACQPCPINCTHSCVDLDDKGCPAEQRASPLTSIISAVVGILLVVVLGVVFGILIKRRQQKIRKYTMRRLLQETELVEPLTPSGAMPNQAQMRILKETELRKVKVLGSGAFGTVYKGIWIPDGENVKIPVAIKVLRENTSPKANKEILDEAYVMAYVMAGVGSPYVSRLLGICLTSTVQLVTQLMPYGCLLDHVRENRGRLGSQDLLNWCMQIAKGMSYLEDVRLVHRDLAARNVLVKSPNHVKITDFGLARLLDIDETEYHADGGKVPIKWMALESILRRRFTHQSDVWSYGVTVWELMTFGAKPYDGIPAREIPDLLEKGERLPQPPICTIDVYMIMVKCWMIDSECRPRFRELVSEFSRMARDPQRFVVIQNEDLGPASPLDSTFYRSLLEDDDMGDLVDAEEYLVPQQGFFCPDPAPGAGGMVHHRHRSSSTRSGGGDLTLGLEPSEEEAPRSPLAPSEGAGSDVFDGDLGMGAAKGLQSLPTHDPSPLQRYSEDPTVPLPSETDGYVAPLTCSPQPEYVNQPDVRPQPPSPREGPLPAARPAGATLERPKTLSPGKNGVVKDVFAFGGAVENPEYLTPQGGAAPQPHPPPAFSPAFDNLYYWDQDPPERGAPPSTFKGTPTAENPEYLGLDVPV
Summary of the method: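 Kinase phosphorylates a ULight-labelled peptide substrate; Eu anti-phospho antibody gives TR-FRET (ex 340 nm, em 665/615 nm). Compounds in 1:3 serial dilution over 8 steps, reaction started with ATP, 1 h at room temperature, stopped with EDTA-containing detection mix for 1 h. IC50 from sigmoidal dose-response curves.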

[2] = biological target: EGFR Exon 20 INSNPH Ba/F3 (Homo sapiens, UniProt P00533, DUP771-773, cells depend on it); experiment: EGFR Exon 20 INSNPH Ba/F3 CellTiter-Glo; type: cell-based; conditions: CellTiter-Glo, 72 h, read-out: EGFR Exon 20 INSNPH Ba/F3 CTG IC50
Chain of EGFR Exon 20 INSNPH Ba/F3 (P00533 with tags, fused parts or gaps DUP771-773): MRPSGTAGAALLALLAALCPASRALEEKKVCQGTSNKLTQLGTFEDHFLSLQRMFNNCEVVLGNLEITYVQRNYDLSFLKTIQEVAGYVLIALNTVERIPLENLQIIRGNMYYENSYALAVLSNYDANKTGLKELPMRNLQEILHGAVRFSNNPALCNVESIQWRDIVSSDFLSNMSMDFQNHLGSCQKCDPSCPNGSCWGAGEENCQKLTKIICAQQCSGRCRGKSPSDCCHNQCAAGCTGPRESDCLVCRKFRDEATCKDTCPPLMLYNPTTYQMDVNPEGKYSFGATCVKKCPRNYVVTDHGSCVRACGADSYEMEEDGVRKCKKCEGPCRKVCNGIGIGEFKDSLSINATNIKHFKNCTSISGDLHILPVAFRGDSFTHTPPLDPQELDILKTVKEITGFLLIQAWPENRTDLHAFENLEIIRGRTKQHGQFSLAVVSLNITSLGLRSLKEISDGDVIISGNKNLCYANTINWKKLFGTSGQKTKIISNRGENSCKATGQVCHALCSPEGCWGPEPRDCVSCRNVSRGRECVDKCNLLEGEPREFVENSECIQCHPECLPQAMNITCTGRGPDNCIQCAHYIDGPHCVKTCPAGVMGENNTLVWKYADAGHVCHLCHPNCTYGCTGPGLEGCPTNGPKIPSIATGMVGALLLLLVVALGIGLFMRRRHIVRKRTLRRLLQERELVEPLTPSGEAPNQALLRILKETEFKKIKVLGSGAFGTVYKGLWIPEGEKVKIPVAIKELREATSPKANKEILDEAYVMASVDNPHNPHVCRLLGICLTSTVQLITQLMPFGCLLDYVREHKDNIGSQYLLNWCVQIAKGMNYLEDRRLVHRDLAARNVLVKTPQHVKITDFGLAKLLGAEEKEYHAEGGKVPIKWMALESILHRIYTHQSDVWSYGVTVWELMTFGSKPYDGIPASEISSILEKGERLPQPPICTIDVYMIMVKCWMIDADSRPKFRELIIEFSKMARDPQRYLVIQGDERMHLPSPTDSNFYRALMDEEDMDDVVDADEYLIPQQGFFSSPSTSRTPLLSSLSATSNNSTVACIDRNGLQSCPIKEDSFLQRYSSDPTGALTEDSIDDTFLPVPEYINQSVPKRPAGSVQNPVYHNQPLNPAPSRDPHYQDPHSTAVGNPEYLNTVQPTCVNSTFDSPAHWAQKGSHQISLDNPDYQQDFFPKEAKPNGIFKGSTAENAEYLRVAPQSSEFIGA
Summary of the method: as §1

[3] = Metabolic stability in mouse liver microsomes without cofactor NADPH; type: in vitro ADME; conditions: 3 μM test compound, mouse liver microsomes, without NADPH, 50 min, 37° C., LC-MS/MS
Summary of the method: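 Test compound (3 μM) was incubated with mouse liver microsomes without NADPH at 37° C. Depletion was followed by LC-MS/MS over time up to 50 min.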

EGFR T790ML858R = EGFR T790ML858R (Homo sapiens, UniProt P00533, L858R/T790M); experiment: EGFR T790ML858R Lance assay; type: biochemical
Procedure: (§2) Inhibition is indicated as […] [nM] (“−”=not measured). Compounds having an activity designated as “A” provided an IC50≤100 nM; compounds having an activity designated as “B” provided an 100 nM<IC50≤500 nM; compounds having an activity designated as “C” provided an 500 nM<IC50≤1000 nM; compounds having an activity designated as “D” provided an 1000 nM<IC50≤100000 nM; and compounds having an activity designated as “E” provided an IC50>10000 nM.

H1975 = H1975 CellTiter-Glo; type: cell-based; conditions: Homo sapiens, NCI-H1975; 72 h compound incubation; read-out: H1975 CTG IC50
Summary of the method: (§3)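 Cells were seeded, left 24 h at 37° C. and 5% CO2, then exposed to compounds in DMSO at different concentrations for a further 72 h. Viability was read as ATP-dependent luminescence (CellTiter-Glo), and IC50 values were obtained from dose-response fits against DMSO and 10 μM Staurosporine controls.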

EGFR wt = EGFR wt (Homo sapiens, UniProt P00533); experiment: EGFR wt Lance assay; type: biochemical
Chain of EGFR wt (P00533 25-1210): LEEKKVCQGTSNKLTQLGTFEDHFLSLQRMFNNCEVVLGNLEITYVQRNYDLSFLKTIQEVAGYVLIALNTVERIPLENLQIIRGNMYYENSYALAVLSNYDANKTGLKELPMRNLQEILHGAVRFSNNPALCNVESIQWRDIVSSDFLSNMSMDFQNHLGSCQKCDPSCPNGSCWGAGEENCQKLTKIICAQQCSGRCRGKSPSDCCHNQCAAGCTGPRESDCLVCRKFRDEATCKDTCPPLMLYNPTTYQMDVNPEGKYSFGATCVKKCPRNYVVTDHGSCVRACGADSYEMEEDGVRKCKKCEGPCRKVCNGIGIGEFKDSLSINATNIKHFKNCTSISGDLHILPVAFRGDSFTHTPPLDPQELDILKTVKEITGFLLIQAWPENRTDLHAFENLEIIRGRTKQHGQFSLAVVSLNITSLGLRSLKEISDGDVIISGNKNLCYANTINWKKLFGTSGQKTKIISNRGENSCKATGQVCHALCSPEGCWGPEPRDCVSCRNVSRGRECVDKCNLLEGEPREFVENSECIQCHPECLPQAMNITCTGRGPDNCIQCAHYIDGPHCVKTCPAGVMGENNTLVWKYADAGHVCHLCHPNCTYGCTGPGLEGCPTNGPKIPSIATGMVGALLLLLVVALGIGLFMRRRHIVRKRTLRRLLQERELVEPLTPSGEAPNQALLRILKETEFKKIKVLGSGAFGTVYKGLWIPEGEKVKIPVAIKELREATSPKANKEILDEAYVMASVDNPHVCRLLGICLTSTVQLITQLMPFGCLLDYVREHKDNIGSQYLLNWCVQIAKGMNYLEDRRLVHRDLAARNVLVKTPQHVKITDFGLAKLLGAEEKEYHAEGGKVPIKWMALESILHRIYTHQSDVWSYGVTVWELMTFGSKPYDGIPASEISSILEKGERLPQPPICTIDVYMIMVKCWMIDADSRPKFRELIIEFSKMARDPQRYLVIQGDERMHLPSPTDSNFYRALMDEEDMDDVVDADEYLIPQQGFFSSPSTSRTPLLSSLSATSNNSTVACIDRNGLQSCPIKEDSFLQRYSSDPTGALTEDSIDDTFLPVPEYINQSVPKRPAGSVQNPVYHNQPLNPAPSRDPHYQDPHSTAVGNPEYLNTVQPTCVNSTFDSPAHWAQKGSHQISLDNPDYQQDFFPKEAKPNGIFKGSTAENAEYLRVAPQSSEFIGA
Procedure: as §2

A431 = A431 CellTiter-Glo; type: cell-based; conditions: Homo sapiens, A-431; 72 h compound incubation; read-out: A431 CTG IC50
Summary of the method: as §3

Chain of Her2 Exon 20 INSYVMA Ba/F3 (P04626 with tags, fused parts or gaps DUP772-775): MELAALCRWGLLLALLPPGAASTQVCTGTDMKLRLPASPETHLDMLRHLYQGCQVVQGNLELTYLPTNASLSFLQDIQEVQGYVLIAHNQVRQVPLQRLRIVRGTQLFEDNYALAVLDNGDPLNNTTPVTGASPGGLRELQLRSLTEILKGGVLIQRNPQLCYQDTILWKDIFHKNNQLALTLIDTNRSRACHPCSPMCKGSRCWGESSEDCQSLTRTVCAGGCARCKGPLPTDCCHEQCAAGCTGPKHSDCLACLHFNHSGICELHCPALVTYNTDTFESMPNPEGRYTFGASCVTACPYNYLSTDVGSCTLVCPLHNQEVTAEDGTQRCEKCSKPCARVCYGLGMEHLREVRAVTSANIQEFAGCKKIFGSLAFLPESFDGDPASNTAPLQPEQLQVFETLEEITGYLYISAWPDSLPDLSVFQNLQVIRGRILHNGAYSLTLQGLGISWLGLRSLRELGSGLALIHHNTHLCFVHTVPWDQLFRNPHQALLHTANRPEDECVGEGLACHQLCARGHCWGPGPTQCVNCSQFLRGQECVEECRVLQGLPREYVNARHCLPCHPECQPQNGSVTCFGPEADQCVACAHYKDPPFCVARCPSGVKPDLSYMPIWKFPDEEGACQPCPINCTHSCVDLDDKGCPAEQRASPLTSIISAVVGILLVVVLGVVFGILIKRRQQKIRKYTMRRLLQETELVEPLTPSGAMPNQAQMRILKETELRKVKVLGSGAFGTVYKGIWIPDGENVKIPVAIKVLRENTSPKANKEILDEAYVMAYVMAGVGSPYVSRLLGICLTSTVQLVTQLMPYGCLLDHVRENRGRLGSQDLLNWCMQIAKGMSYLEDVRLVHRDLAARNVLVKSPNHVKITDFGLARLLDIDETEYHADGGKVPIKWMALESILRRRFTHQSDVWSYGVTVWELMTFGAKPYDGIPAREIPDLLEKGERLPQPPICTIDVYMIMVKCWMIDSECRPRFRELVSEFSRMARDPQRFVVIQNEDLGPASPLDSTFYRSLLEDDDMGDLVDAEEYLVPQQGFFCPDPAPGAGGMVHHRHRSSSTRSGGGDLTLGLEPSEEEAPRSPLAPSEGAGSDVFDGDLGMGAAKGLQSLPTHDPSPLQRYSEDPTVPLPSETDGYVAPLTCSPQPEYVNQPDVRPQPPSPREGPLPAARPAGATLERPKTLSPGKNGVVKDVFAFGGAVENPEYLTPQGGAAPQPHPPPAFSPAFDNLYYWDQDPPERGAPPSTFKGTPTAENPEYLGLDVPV

Compound	GI50 [1] [nM]	IC50 (HER2 INS YVMA) [nM]	GI50 [2] [nM]	Stability in presence of mouse liver microsomes without cofactor NADPH [% remaining after 50 min] [3] [% remaining after 50 min]	IC50 (EGFR T790ML858R) [nM]	IC50 (H1975) [nM]	IC50 (EGFR wt) [nM]	IC50 (A431) [nM]
C=CC(=O)Nc1cc(-c2c(-c3ccc(N4CCN(CC)CC4)cc3)[nH]c3ncc(C(=O)OC(C)C)cc23)ccc1C [Example 157, isopropyl 3-(3-acrylamido-4-methylphenyl)-2-(4-(4-ethylpiperazin-1-yl)phenyl)-1H-pyrrolo[2,3-b]pyridine-5-carboxylate]	100 to 500	≤ 100	100 to 500	>99	≤ 100	100 to 500	≤ 100	1000 to 100000
C=CC(=O)Nc1cc(-c2c(-c3ccc(OCCN4CCCC4)cc3)[nH]c3ncc(C(=O)OC(C)C)cc23)ccc1C [Example 158, isopropyl 3-(3-acrylamido-4-methylphenyl)-2-(4-(2-(pyrrolidin-1-yl)ethoxy)phenyl)-1H-pyrrolo[2,3-b]pyridine-5-carboxylate]	100 to 500	≤ 100	100 to 500	>99	≤ 100	100 to 500	≤ 100	1000 to 100000
C=CC(=O)Nc1cc(-c2c(-c3ccc(OCCN(C)C)cc3)[nH]c3ncc(C(=O)OC(C)C)cc23)ccc1C [Example 159, isopropyl 3-(3-acrylamido-4-methylphenyl)-2-(4-(2-(dimethylamino)ethoxy)phenyl)-1H-pyrrolo[2,3-b]pyridine-5-carboxylate]	100 to 500	≤ 100	100 to 500	>99	≤ 100	100 to 500	≤ 100	1000 to 100000
C=CC(=O)Nc1cc(-c2c(-c3ccc(CN4CCN(C)CC4)cc3)[nH]c3ncc(C(=O)OC(C)C)cc23)ccc1C [Example 160, isopropyl 3-(3-acrylamido-4-methylphenyl)-2-(4-((4-methylpiperazin-1-yl)methyl)phenyl)-1H-pyrrolo[2,3-b]pyridine-5-carboxylate]	100 to 500	≤ 100	100 to 500	>99	≤ 100	100 to 500	≤ 100	1000 to 100000
C=CC(=O)Nc1cc(-c2c(-c3ccc(CCN(C)C)cc3)[nH]c3ncc(C(=O)OC(C)C)cc23)ccc1C [Example 161, isopropyl 3-(3-acrylamido-4-methylphenyl)-2-(4-(2-(dimethylamino)ethyl)phenyl)-1H-pyrrolo[2,3-b]pyridine-5-carboxylate]	100 to 500	≤ 100	100 to 500	>99	≤ 100	100 to 500	≤ 100	1000 to 100000
C=CC(=O)Nc1cc(-c2c(-c3ccc(N4CCN(C)CC4)c(F)c3)[nH]c3ncc(C(=O)OC(C)C)cc23)ccc1C [Example 164, isopropyl 3-(3-acrylamido-4-methylphenyl)-2-(3-fluoro-4-(4-methylpiperazin-1-yl)phenyl)-1H-pyrrolo[2,3-b]pyridine-5-carboxylate]	100 to 500	≤ 100	100 to 500	>99	≤ 100	100 to 500	≤ 100	1000 to 100000
C=CC(=O)Nc1cc(-c2c(-c3ccc(OCCN(C)C)cc3)[nH]c3ncc(C(=O)OC(C)C)cc23)cc(F)c1C [Example 182, isopropyl 3-(3-acrylamido-5-fluoro-4-methylphenyl)-2-(4-(2-(dimethylamino)ethoxy)phenyl)-1H-pyrrolo[2,3-b]pyridine-5-carboxylate]	100 to 500	≤ 100	100 to 500	>99	≤ 100	100 to 500	≤ 100	1000 to 100000

More lines, now with the values ahead:

GI50 [1] [nM]	IC50 (HER2 INS YVMA) [nM]	GI50 [2] [nM]	Stability in presence of mouse liver microsomes without cofactor NADPH [% remaining after 50 min] [3] [% remaining after 50 min]	IC50 (EGFR T790ML858R) [nM]	IC50 (H1975) [nM]	IC50 (EGFR wt) [nM]	IC50 (A431) [nM]	Compound
100 to 500	≤ 100	100 to 500	>99	≤ 100	100 to 500	≤ 100	1000 to 100000	C=CC(=O)Nc1cc(-c2c(-c3ccc(N4CCN(C)CC4)cc3)[nH]c3ncc(C(=O)OC(C)C)cc23)cc(F)c1C [Example 165, isoproyl 3-(3-acrylamido-5-fluoro-4-methylphenyl)-2-(4-(4-methylpiperazin-1-yl)phenyl)-1H-pyrrolo[2,3-b]pyridine-5-carboxylate 2,2,2-trifluoroacetate]
100 to 500	≤ 100	100 to 500	>99	≤ 100	100 to 500	≤ 100	1000 to 100000	C=CC(=O)Nc1cc(-c2c(-c3cccc(OCCN4CCCC4)c3)[nH]c3ncc(C(=O)OC(C)C)cc23)ccc1C [Example 170, isopropyl 3-(3-acrylamido-4-methylphenyl)-2-(3-(2-(pyrrolidin-1-yl)ethoxy)phenyl)-1H-pyrrolo[2,3-b]pyridine-5-carboxylate]
100 to 500	≤ 100	100 to 500	>99	≤ 100	100 to 500	≤ 100	1000 to 100000	C=CC(=O)Nc1cc(-c2c(-c3ccc(N(C)CCN(C)C)cc3)[nH]c3ncc(C(=O)OC(C)C)cc23)cc(F)c1C [Example 172, isopropyl 3-(3-acrylamido-5-fluoro-4-methylphenyl)-2-(4-((2-(dimethylamino)ethyl)(methyl)amino)phenyl)-1H-pyrrolo[2,3-b]pyridine-5-carboxylate]
100 to 500	≤ 100	100 to 500	>99	≤ 100	100 to 500	≤ 100	1000 to 100000	C=CC(=O)Nc1cc(-c2c(-c3ccc(N4CCN(C(C)C)CC4)cc3)[nH]c3ncc(C(=O)OC(C)C)cc23)ccc1C [Example 176, isopropyl 3-(3-acrylamido-4-methylphenyl)-2-(4-(4-isopropylpiperazin-1-yl)phenyl)-1H-pyrrolo[2,3-b]pyridine-5-carboxylate]
100 to 500	≤ 100	100 to 500	>99	≤ 100	100 to 500	≤ 100	1000 to 100000	C=CC(=O)Nc1cc(-c2c(-c3ccc(CN(C)C)cc3)[nH]c3ncc(C(=O)OC(C)C)cc23)cc(F)c1C [Example 177, isopropyl 3-(3-acrylamido-5-fluoro-4-methylphenyl)-2-(4-((dimethylamino)methyl)phenyl)-1H-pyrrolo[2,3-b]pyridine-5-carboxylate]
100 to 500	≤ 100	100 to 500	>99	≤ 100	100 to 500	≤ 100	1000 to 100000	C=CC(=O)Nc1cc(-c2c(-c3ccc(C4CCN(C)CC4)cc3)[nH]c3ncc(C(=O)OC(C)C)cc23)cc(F)c1C [Example 179, isopropyl 3-(3-acrylamido-5-fluoro-4-methylphenyl)-2-(4-(1-methylpiperidin-4-yl)phenyl)-1H-pyrrolo[2,3-b]pyridine-5-carboxylate]
